Results from US20240376099A1, “COMPOUNDS AND COMPOSITIONS AS INHIBITORS OF ENDOSOMAL TOLL-LIKE RECEPTORS” (Novartis AG, priority 2016, published 2024).

target: T1, TLR8 (Homo sapiens, UniProt Q9NR97); test: huPBMC TLR8 Antagonist IL-6 TR-FRET Assay; assay type: cell-based; set-up: Fresh blood was collected from normal human donors; endogenous in cells; host or cells: human PBMCs from fresh donor blood; conditions: human PBMCs stimulated with ssRNA40 1 μg/ml (DOTAP), 14-16 hrs; IL-6 TR-FRET read-out
T1 sequence (Q9NR97 27-1041): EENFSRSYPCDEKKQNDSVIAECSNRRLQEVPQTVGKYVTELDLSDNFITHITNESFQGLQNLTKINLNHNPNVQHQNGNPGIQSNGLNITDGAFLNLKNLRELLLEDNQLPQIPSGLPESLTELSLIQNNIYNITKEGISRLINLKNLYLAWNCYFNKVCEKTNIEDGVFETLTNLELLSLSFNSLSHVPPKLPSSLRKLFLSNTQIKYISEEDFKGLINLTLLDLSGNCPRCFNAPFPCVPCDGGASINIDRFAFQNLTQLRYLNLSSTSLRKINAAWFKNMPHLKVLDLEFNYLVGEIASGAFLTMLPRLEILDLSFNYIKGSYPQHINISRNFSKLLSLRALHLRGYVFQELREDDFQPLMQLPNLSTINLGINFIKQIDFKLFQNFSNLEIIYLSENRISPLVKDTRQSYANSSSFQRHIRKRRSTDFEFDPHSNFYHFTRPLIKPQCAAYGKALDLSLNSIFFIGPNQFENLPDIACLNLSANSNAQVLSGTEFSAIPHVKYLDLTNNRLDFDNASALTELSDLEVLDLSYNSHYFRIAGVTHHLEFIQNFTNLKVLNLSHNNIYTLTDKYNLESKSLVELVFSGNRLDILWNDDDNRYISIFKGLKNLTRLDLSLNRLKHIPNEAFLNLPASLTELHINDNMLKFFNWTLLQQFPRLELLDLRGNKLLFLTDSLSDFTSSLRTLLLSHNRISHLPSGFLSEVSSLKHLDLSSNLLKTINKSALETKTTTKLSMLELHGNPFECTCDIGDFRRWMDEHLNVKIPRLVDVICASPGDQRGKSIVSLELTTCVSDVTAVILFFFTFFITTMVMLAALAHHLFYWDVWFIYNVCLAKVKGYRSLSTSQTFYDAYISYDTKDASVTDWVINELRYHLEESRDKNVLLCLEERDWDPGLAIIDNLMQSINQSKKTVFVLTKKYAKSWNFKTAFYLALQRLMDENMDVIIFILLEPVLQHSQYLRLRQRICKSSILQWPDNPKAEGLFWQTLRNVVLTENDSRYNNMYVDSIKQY
How it was run: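 Human PBMCs from fresh donor blood (150,000 cells/well) stimulated 14–16 h at 37 °C with DOTAP-complexed ssRNA40 (final 1 μg/ml for TLR8, 10 μg/mL for TLR7) or ODN2216 (final 0.3 μM, TLR9), 0.25% DMSO, ten-point 1/3 compound dilutions. Supernatant IL-6 read by HTRF (TLR8); IFNα by IFNα2b AlphaLISA (TLR7/TLR9).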

`Cc1cc(N2CCc3c(c(C)nn3CC34CCC(N)(CC3)CC4)C2)c2cnn(C)c2n1` [Compound No. 1, 4-((5-(1,6-dimethyl-1H-pyrazolo[3,4-b]pyridin-4-yl)-3-methyl-4,5,6,7-tetrahydro-1H-pyrazolo[4,3-c]pyridin-1-yl)methyl)bicyclo[2.2.2]octan-1-amine] and `CNC12CCC(Cn3nc(C)c4c3CCN(c3cc(C)nc5c3cnn5C)C4)(CC1)CC2` [Compound No. 50, 4-((5-(1,6-dimethyl-1H-pyrazolo[3,4-b]pyridin-4-yl)-3-methyl-4,5,6,7-tetrahydro-1H-pyrazolo[4,3-c]pyridin-1-yl)methyl)-N-methylbicyclo[2.2.2]octan-1-amine] are within 1.5-fold of each other in IC50: 236 nM for the first, 308 nM for the second.

First: Cc1cc(N2CCc3c(c(C)nn3CC34CCC(N)(CC3)CC4)C2)c2cn[nH]c2n1 [Compound No. 2, 4-((3-methyl-5-(6-methyl-1H-pyrazolo[3,4-b]pyridin-4-yl)-4,5,6,7-tetrahydro-1H-pyrazolo[4,3-c]pyridin-1-yl)methyl)bicyclo[2.2.2]octan-1-amine]
Second: COc1ccc(Cn2ncc3c(N4CCc5c(c(C)nn5CC56CCC(N)(CC5)CC6)C4)cc(C)nc32)cc1 [Compound No. 53, 4-((5-(1-(4-methoxybenzyl)-6-methyl-1H-pyrazolo[3,4-b]pyridin-4-yl)-3-methyl-4,5,6,7-tetrahydro-1H-pyrazolo[4,3-c]pyridin-1-yl)methyl)bicyclo[2.2.2]octan-1-amine]
The IC50 of the first is higher: over 10000 nM for the first, 1140 nM for the second. The second is the more potent here.

Compared with `Cc1cc(N2CCc3c(c(C)nn3CC34CCC(N(C)C(=O)OC(C)(C)C)(CC3)CC4)C2)c2cnn(C)c2n1` [Compound No. 49, tert-butyl (4-((5-(1,6-dimethyl-1H-pyrazolo[3,4-b]pyridin-4-yl)-3-methyl-4,5,6,7-tetrahydro-1H-pyrazolo[4,3-c]pyridin-1-yl)methyl)bicyclo[2.2.2]octan-1-yl)(methyl)carbamate], `Cc1cc(N2CCc3c(c(C)nn3CC34CCC(N(C)C5COC5)(CC3)CC4)C2)c2cnn(C)c2n1` [Compound No. 77, N-(4-((5-(1,6-dimethyl-1H-pyrazolo[3,4-b]pyridin-4-yl)-3-methyl-4,5,6,7-tetrahydro-1H-pyrazolo[4,3-c]pyridin-1-yl)methyl)bicyclo[2.2.2]octan-1-yl)-N-methyloxetan-3-amine] is lower in IC50: over 10000 nM for the first, 316 nM for the second. The second is the more potent here.

First: Cc1cc(N2CCc3c(c(C)nn3CC34CCC(NC(=O)OC5(C)CC5)(CC3)CC4)C2)c2cnn(C)c2n1 [Compound No. 51, 1-methylcyclopropyl (4-((5-(1,6-dimethyl-1H-pyrazolo[3,4-b]pyridin-4-yl)-3-methyl-4,5,6,7-tetrahydro-1H-pyrazolo[4,3-c]pyridin-1-yl)methyl)bicyclo[2.2.2]octan-1-yl)carbamate]
Second: COCCNC12CCC(Cn3nc(C)c4c3CCN(c3cc(C)nc5c3cnn5C)C4)(CC1)CC2 [Compound No. 69, 4-((5-(1,6-dimethyl-1H-pyrazolo[3,4-b]pyridin-4-yl)-3-methyl-4,5,6,7-tetrahydro-1H-pyrazolo[4,3-c]pyridin-1-yl)methyl)-N-(2-methoxyethyl)bicyclo[2.2.2]octan-1-amine]
The IC50 of the first is higher: over 10000 nM for the first, 31 nM for the second. The second is the more potent here.

`Cc1cc(N2CCc3c(c(C)nn3CC34CCC(N5CCCC5)(CC3)CC4)C2)c2cnn(C)c2n1` [Compound No. 58, 5-(1,6-dimethyl-1H-pyrazolo[3,4-b]pyridin-4-yl)-3-methyl-1-((4-(pyrrolidin-1-yl)bicyclo[2.2.2]octan-1-yl)methyl)-4,5,6,7-tetrahydro-1H-pyrazolo[4,3-c]pyridine] and `Cc1cc(N2CCc3c(c(C)nn3CC34CCC(N5CCOCC5)(CC3)CC4)C2)c2cnn(C)c2n1` [Compound No. 59, 4-(4-((5-(1,6-dimethyl-1H-pyrazolo[3,4-b]pyridin-4-yl)-3-methyl-4,5,6,7-tetrahydro-1H-pyrazolo[4,3-c]pyridin-1-yl)methyl)bicyclo[2.2.2]octan-1-yl)morpholine] are within 1.5-fold of each other in IC50: 53 nM for the first, 52 nM for the second.
